Data set [1] can be described thus: Safety and tolerability in study B8271007. In kind it is in vivo, human. The conditions noted are these: single oral dose of 2 mg midazolam alone (period 1).
The subject of data set [2] is fur, hair and skin pigmentation. The conditions noted are these: cited from earlier work; for Fur and skin pigmentation: mice, rats, or dogs following chronic dosing regimens.
For the next data set, the system named is CSF Aβ. The settings on record: cited from earlier work; for Reduction in CSF Aβ: healthy older subjects; for Reduction of CSF Aβ40: healthy adults and older subjects combined; for Average reduction of steady state CSF Aβ40: mild-to-moderate AD patients.
The conditions of data set [3]: cited from earlier work.
For a further data set, the system named is BACE1 over CatD. The settings on record: cited from earlier work.
A further data set relates to BACE1 over BACE2. The conditions noted are these: cited from earlier work.

Read-outs that look alike come from different tables or passages of the source.

Take `Cc1ncc2n1-c1ccc(Cl)cc1C(c1ccccc1F)=NC2` [midazolam, reference compound]: in data set [1], the “TEAEs deemed treatment related” value is “none” and the TEAEs reported result is on record as “three”.

For `CC#Cc1cncc(-c2ccc3c(c2)[C@@]2(N=C(C)C(N)=N2)[C@]2(CC[C@H](OC)CC2)C3)c1` [AZD3293], in data set [2] (animal studies), the Hair depigmentation entry is given as “hair depigmentation”. Also, the “Fur and skin pigmentation” value in data set [2] was “fur and skin pigment loss”. The “Reduction in CSF Aβ” value with CSF Aβ (15 mg QD) was “approximately 51%”; in the data set on CSF Aβ (50 mg QD) it was roughly 76%. Also, in data set [3], the “Liver toxicity in clinical studies” value is “liver toxicity was not reported”. Also, the “Selectivity for BACE1 over CatD” value with BACE1 over CatD was “good selectivity”.

For the compound `Cc1cc(C#N)cnc1C(=O)Nc1ccc(F)c([C@]2(C)CO[C@@](C)(C(F)(F)F)C(N)=N2)c1` [NB-360], the “Fur and skin pigmentation” value in data set [2] is “fur and skin pigment loss”.

For `C[C@@]1(c2cc(NC(=O)c3ccc(C#N)cn3)ccc2F)C=CSC(N)=N1` [JNJ-54861911], the figures for the “Reduction of CSF Aβ40” value with CSF Aβ (5 mg QD) and in the data set on CSF Aβ (25 mg QD) were “approximately 50%” and roughly 80%, respectively. Also, the “Liver toxicity in clinical studies” value in data set [3] (Phase II and Phase IIb/III studies) was “concerns over abnormal liver enzymes leading to the termination”.

`CN1C(=N)N[C@](C)(c2cc(NC(=O)c3ccc(F)cn3)ccc2F)CS1(=O)=O` [MK-8931]: in data set [2] (animal studies), the Hair depigmentation result is on record as “hair depigmentation”. Also, the “Average reduction of steady state CSF Aβ40” value in the data set with CSF Aβ (12 mg QD) is on record as 57%; with CSF Aβ (40 mg QD), 79%. In addition, in data set [3], the “Liver toxicity in clinical studies” value is recorded as “liver toxicity was not reported”.

As for `C[C@@]1(c2nc(NC(=O)c3ncc(C(F)(F)F)cc3Cl)ccc2F)CO[C@@](C)(C(F)(F)F)C(N)=N1` [CNP520], the Hair depigmentation entry in data set [2] (long-term treatment in mice or dogs) was “did not result in any hair depigmentation”. In data set [3], the “Liver toxicity in clinical studies” value was “liver toxicity was not reported”. The “Selectivity for BACE1 over BACE2 in vitro” value in the data set on BACE1 over BACE2 was 3 fold.

`NC1=N[C@@]2(c3cc(NC(=O)c4ccc(F)cn4)ccc3F)COC[C@H]2CS1` [LY2886721]: the “Liver toxicity in clinical studies” value in data set [3] (Phase II study) is on record as “concerns over abnormal liver enzymes leading to the termination”.

(Values after PMC6839502 (Journal of Alzheimer's Disease, 2019).)
